US5861413A, “2-oxo- and 2-thio-1,2-dihydroquinolinyl-oxazolidinones” (Bayer Aktiengesellschaft, priority 1996, dated 1999)
≈ marks a conversion by molar mass, not a printed value. Like-named read-outs stand apart in the source and are kept apart here.

Assays:
Format in all cases: cell-based
[1] = system: E. coli Neumann; test: MIC by serial dilution on Iso-Sensitest agar, E. coli Neumann; conditions: Escherichia coli, 37° C., about 20 hours, about 10^4 colony-forming particles
Procedure: (§1) The minimum inhibitory concentrations (MIC) there determined by the serial dilution method on Iso-Sensitest agar (Oxoid). For each test substance, a number of agar plates were prepared which, at twice the dilution in each case, contained falling concentrations of the active compound. The agar plates were inoculated using a multipoint inoculator (Denley). For inoculation, overnight cultures of the pathogenic organisms were used which had previously been diluted such that each inoculation point contained about 10^4 colony-forming particles. The inoculated agar plates were incubated at 37° C., and the microbial growth was read off after about 20 hours. The MIC (μg/ml) indicates the lowest active compound concentration at which it was not possible to detect growth using the naked eye.

[2] = system: Mycobacterium smegmatis DSM 43465; test: MIC by broth microdilution, Mycobacterium smegmatis DSM 43465; conditions: Mycolicibacterium smegmatis, DSM43465
Procedure: (§2) For rapidly growing mycobacteria, the MIC determination was carried out following the method of broth microdilution described by Swenson [cf. J. M. Swenson, C. Thornberry, U. A. Silcox, Rapidly growing mycobacteria. Testing of susceptibility to 34 antimicrobial agents by broth microdilution. Antimicrobial Agents and Chemotherapy Vol. 22, 186-192 (1982)]. A deviation from this was the brain-heart extract medium treated with 0.1% by volume of Tween 80.
(§3) The mycobacterial strains used wvere ordered from DSM (German Collection of Microorganisms, Brunswick). They were incubated at 37° C. in a humid chamber.
(§4) The MICs were read off after 2-4 days when the preparation-free controls were cloudy as a result of growth.

[3] = system: Klebs. 57 USA; test: MIC by serial dilution on Iso-Sensitest agar, Klebs. 57 USA; conditions: 37° C., about 20 hours, about 10^4 colony-forming particles
Procedure: as §1

[4] = system: Staph. 133; test: MIC by serial dilution on Iso-Sensitest agar, Staph. 133; conditions: 37° C., about 20 hours, about 10^4 colony-forming particles
Procedure: as §1

[5] = system: Staph 25701; test: MIC by serial dilution on Iso-Sensitest agar, Staph 25701; conditions: 37° C., about 20 hours, about 10^4 colony-forming particles
Procedure: as §1

[6] = system: Mycobacterium smegmatis DSM 43061; test: MIC by broth microdilution, Mycobacterium smegmatis DSM 43061; conditions: Mycolicibacterium smegmatis, DSM43061
Procedure: as §2, §3, §4

[7] = system: Psdm. Bonn; test: MIC by serial dilution on Iso-Sensitest agar, Psdm. Bonn; conditions: 37° C., about 20 hours, about 10^4 colony-forming particles
Procedure: as §1

[8] = system: Staph. 9TV; test: MIC by serial dilution on Iso-Sensitest agar, Staph. 9TV; conditions: 37° C., about 20 hours, about 10^4 colony-forming particles
Procedure: as §1

[9] = system: Staph. 48N; test: MIC by serial dilution on Iso-Sensitest agar, Staph. 48N; conditions: 37° C., about 20 hours, about 10^4 colony-forming particles
Procedure: as §1

[10] = DSM 43465, inoculum 3.10U+04 /ml, brain-heart extract medium with 0.1% Tween 80, 37° C., 2-4 days, read-out: MIC
[11] = DSM 43061, inoculum 2.20U+04 /ml, brain-heart extract medium with 0.1% Tween 80, 37° C., 2-4 days, read-out: MIC

SMILES	MIC [1] [µg/mL]	MIC [2, 10] [µg/mL]	MIC [3] [µg/mL]	MIC [4] [µg/mL]	MIC [5] [µg/mL]	MIC [6, 11] [µg/mL]	MIC [7] [µg/mL]	MIC [8] [µg/mL]	MIC [9] [µg/mL]	MIC [2] [µg/mL]	MIC [6] [µg/mL]
CC(=O)NC[C@H]1CN(c2ccc3c(ccc(=O)n3CC#N)c2)C(=O)O1 [Example 6]	–	4 (≈ 11.8 µM)	–	–	–	8 (≈ 23.5 µM)	–	–	–	–	–
CC(=O)NC[C@H]1CN(c2ccc3c(ccc(=O)n3CCO)c2)C(=O)O1 [Example 7]	> 32	–	> 32	8 (≈ 23.2 µM)	8 (≈ 23.2 µM)	–	> 32	2 (≈ 5.79 µM)	8 (≈ 23.2 µM)	–	–
CC(=O)NC[C@H]1CN(c2ccc3c(ccc(=O)n3S(C)(=O)=O)c2)C(=O)O1 [Example 12]	> 64	–	> 64	8 (≈ 21.1 µM)	8 (≈ 21.1 µM)	–	> 64	4 (≈ 10.5 µM)	8 (≈ 21.1 µM)	–	–
[H]/N=C(/N)N[C@H]1[C@H](O)[C@@H](O)[C@H](O[C@@H]2O[C@@H](C)[C@](O)(C=O)[C@H]2O[C@@H]2O[C@@H](CO)[C@H](O)[C@@H](O)[C@@H]2NC)[C@@H](N/C(N)=N\[H])[C@@H]1O [Streptomycin, reference compound]	–	–	–	–	–	–	–	–	–	4 (≈ 6.88 µM)	4 (≈ 6.88 µM)

More lines, main results first:

MIC [1] [µg/mL]	MIC [2, 10] [µg/mL]	MIC [3] [µg/mL]	MIC [4] [µg/mL]	MIC [5] [µg/mL]	MIC [6, 11] [µg/mL]	MIC [7] [µg/mL]	MIC [8] [µg/mL]	MIC [9] [µg/mL]	SMILES	MIC [2] [µg/mL]	MIC [6] [µg/mL]
> 64	8 (≈ 25.4 µM)	> 64	2 (≈ 6.34 µM)	2 (≈ 6.34 µM)	2 (≈ 6.34 µM)	> 64	1 (≈ 3.17 µM)	2 (≈ 6.34 µM)	CC(=O)NC[C@H]1CN(c2ccc3c(ccc(=O)n3C)c2)C(=O)O1 [Example 3]	–	–
> 64	8 (≈ 24.3 µM)	> 64	4 (≈ 12.1 µM)	4 (≈ 12.1 µM)	4 (≈ 12.1 µM)	–	2 (≈ 6.07 µM)	8 (≈ 24.3 µM)	CCn1c(=O)ccc2cc(N3C[C@H](CNC(C)=O)OC3=O)ccc21 [Example 4]	–	–
> 64	–	> 64	16 (≈ 46.6 µM)	16 (≈ 46.6 µM)	–	> 64	8 (≈ 23.3 µM)	16 (≈ 46.6 µM)	CC(=O)NC[C@H]1CN(c2ccc3c(ccc(=O)n3C(C)C)c2)C(=O)O1 [Example 5]	–	–
–	1 (≈ 7.29 µM)	–	–	–	4 (≈ 29.2 µM)	–	–	–	NNC(=O)c1ccncc1 [Isoniazide, reference compound]	–	–
